This passage reports % of control, % binding and % of inhibition results from ChEMBL document CHEMBL5465560, “Selectivity Literature for EUbOPEN Chemogenomic Library” (2024).

Experiment [1] deals with T1, Mitogen-activated protein kinase kinase kinase 3 (Homo sapiens) (UniProt Q99759).
T1 sequence (whole entry): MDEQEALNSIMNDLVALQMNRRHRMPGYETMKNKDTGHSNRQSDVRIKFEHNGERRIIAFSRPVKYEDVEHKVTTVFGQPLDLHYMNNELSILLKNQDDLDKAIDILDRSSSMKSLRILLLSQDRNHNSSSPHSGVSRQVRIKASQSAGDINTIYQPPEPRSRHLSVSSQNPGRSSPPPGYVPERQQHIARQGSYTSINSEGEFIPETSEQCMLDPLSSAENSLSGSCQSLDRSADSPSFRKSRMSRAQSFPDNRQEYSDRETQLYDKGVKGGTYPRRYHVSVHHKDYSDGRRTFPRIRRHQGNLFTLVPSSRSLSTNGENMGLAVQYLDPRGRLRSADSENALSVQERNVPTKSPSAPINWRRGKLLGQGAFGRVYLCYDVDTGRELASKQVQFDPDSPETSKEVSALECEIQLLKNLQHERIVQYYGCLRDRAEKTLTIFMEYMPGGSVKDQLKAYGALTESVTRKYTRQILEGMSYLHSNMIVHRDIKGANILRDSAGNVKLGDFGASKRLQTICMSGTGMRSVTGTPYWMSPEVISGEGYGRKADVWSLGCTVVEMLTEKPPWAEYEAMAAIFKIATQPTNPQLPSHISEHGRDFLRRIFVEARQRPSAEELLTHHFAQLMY
The experiment is described as follows: Selectivity interaction (KinomeScan (DiscoverX)) EUB0000607a MAP3K3. Conditions: at 10 µM.

Experiment [2] addresses T2, Mitogen-activated protein kinase 12 (Homo sapiens) (UniProt P53778).
T2 sequence (whole entry): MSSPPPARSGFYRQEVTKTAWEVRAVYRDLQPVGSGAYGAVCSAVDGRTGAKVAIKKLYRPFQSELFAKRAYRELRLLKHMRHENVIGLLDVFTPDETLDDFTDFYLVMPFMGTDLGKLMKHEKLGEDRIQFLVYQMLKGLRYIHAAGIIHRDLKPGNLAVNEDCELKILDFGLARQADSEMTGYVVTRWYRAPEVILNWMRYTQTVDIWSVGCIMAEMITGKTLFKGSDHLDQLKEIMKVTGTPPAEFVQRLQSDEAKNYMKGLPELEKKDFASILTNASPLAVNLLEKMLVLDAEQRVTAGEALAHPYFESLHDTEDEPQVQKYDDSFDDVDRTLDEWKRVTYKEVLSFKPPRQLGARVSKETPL
Put plainly: Selectivity interaction (KinomeScan (DiscoverX)) EUB0000607a MAPK12. The conditions noted are these: at 10 µM.

The target in experiment [3] is Interleukin-1 receptor-associated kinase 1 (Homo sapiens) (UniProt P51617). Conditions: at 10 µM.
Sequence of Interleukin-1 receptor-associated kinase 1 (Homo sapiens) (P51617 whole entry, looked up, the tested form may be a part): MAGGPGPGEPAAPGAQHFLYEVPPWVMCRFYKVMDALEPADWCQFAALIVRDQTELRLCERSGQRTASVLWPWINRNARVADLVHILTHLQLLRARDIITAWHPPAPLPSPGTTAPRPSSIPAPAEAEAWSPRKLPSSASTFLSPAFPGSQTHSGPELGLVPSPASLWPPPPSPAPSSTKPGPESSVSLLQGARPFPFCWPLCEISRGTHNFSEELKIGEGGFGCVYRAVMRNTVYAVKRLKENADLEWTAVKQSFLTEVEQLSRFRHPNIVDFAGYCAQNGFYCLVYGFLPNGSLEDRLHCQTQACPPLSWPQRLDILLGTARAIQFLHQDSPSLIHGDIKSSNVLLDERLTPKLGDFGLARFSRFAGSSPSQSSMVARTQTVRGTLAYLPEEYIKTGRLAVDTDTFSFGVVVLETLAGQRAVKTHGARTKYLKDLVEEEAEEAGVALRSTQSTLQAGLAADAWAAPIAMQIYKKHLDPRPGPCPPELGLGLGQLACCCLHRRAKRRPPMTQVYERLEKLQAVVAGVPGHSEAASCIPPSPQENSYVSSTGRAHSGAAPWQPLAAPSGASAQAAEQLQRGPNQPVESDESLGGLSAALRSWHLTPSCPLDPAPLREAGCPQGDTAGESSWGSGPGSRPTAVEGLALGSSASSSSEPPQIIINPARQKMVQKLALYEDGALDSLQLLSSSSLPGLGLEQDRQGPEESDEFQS
The target of experiment [4] is LIM domain kinase 1 (Homo sapiens) (UniProt P53667). Put plainly: Selectivity interaction (KinomeScan (DiscoverX)) EUB0000229b LIMK1. The conditions noted are these: at 10 µM.
The target in experiment [5] is T3, Tyrosine-protein kinase TXK (Homo sapiens) (UniProt P42681).
T3 sequence (whole entry): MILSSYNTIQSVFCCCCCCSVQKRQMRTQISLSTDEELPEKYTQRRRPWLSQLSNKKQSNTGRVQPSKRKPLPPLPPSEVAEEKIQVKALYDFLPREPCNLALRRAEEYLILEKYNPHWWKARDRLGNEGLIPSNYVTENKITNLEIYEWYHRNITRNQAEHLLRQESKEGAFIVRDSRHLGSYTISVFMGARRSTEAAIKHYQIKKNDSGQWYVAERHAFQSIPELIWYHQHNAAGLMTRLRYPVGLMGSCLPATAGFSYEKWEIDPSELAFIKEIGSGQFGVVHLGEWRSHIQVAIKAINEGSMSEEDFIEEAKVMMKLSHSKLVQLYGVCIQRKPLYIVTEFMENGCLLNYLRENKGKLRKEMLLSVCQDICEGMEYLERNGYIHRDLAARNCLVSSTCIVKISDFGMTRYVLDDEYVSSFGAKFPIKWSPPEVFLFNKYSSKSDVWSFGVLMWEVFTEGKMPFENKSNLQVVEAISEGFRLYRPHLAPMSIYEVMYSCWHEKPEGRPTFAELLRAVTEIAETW
Put plainly: Selectivity interaction (KinomeScan (DiscoverX)) EUB0001079a TXK. Conditions: at 1 µM.

Experiment [6] has as its target Mitogen-activated protein kinase kinase kinase 11 (Homo sapiens) (UniProt Q16584). Put plainly: Selectivity interaction (Kinase panel (literature)) EUB0001199aCl MAP3K11. Conditions: at 1 µM.
Experiment [7] addresses T4, Serine/threonine-protein kinase 26 (Homo sapiens, UniProt Q9P289). Put plainly: Selectivity interaction (ActivX KiNativ screen (kinase selectivity in THP-1 cell lysates)) EUB0000639a STK26. Conditions: lysate, at 5 µM. The experiment is classed as subcellular.
In experiment [8] the target is Serine/threonine-protein kinase PLK2 (Homo sapiens, UniProt Q9NYY3). The experiment is described as follows: Selectivity interaction (KinomeScan (DiscoverX)) EUB0001049a PLK2. The conditions noted are these: at 1 µM.
Sequence of Serine/threonine-protein kinase PLK2 (Q9NYY3 whole entry, looked up): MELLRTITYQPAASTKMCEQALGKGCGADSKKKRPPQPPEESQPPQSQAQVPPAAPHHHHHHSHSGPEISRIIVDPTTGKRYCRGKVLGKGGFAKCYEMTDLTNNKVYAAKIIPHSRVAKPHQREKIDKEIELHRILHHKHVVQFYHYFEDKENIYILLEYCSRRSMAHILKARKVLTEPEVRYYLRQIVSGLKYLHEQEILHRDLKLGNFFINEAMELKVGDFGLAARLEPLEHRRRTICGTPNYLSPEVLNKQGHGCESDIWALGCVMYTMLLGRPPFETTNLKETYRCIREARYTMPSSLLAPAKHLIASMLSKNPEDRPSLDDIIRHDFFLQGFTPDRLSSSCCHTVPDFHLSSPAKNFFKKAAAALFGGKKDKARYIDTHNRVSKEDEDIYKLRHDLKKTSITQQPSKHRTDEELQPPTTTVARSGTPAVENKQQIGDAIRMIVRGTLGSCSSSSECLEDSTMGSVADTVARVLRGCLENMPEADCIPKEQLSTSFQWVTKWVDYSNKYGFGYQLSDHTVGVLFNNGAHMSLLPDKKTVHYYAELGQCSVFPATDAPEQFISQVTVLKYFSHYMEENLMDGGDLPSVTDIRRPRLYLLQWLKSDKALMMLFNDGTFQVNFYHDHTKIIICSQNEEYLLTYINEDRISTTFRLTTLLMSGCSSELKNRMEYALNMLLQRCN
For experiment [9], the target named is BMP-2-inducible protein kinase (Homo sapiens) (UniProt Q9NSY1). Put plainly: Selectivity interaction (KinomeScan (DiscoverX)) EUB0001049a BMP2K. Conditions: at 1 µM.
Sequence of BMP-2-inducible protein kinase (Homo sapiens) (Q9NSY1 whole entry, looked up): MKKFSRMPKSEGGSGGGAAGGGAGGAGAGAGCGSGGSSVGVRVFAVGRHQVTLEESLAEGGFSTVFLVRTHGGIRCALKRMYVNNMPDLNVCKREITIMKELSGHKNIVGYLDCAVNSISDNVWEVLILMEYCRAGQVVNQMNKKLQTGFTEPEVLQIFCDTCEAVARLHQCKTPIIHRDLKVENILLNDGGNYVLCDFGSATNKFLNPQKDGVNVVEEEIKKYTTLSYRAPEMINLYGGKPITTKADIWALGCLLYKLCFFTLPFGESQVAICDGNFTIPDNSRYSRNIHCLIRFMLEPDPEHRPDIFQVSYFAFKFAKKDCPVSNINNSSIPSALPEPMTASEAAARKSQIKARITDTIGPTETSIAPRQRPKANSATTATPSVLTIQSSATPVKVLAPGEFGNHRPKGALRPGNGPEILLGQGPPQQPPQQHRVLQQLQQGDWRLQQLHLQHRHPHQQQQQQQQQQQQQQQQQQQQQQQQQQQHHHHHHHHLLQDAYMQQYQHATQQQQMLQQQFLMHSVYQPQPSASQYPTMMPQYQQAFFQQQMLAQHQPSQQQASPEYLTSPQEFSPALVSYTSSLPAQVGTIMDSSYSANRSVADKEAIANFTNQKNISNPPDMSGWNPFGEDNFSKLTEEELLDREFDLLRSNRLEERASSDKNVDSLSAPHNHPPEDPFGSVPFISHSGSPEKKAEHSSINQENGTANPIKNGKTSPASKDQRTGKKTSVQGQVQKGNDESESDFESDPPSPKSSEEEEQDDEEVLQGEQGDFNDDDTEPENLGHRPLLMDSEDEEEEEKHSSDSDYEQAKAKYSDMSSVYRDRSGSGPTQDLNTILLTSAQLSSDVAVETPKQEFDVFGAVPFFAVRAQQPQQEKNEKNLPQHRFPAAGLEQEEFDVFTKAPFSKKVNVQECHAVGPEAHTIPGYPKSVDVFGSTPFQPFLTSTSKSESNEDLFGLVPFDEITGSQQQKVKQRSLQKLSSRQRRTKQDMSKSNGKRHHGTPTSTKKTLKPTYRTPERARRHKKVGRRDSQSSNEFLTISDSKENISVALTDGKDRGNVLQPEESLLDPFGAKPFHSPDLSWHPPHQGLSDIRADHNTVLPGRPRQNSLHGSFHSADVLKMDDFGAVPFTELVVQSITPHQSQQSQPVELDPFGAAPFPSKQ
In experiment [10] the target is T4, Serine/threonine-protein kinase 26. Put plainly: Selectivity interaction (ProQinase) EUB0000171b STK26.
Experiment [11] concerns the target Serine/threonine-protein kinase VRK2 (Homo sapiens) (UniProt Q86Y07). Put plainly: Selectivity interaction (ProQinase) EUB0000171b VRK2.
Experiment [12] deals with Serine/threonine-protein kinase MRCK alpha (Homo sapiens) (UniProt Q5VT25). Put plainly: Selectivity interaction (KinomeScan (DiscoverX)) EUB0000092b CDC42BPA. The conditions noted are these: at 10 µM.
Experiment [13] addresses Cyclin-dependent kinase 18 (Homo sapiens) (UniProt Q07002). The experiment is described as follows: Selectivity interaction (KinomeScan (DiscoverX)) EUB0000045b CDK18.

T4 sequence (Q9P289 2-416 limits assumed): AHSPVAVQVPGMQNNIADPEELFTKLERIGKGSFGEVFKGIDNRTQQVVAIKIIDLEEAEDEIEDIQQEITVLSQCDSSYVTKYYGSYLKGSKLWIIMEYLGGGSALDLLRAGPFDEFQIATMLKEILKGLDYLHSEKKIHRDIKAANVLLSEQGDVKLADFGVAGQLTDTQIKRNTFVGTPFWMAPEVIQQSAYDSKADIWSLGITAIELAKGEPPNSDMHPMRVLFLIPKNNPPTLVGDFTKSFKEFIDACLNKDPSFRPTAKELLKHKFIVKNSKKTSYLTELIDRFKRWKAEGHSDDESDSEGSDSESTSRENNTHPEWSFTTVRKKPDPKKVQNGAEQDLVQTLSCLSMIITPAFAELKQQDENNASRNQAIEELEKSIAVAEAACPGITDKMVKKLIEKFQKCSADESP
Sequence of Cyclin-dependent kinase 18 (Homo sapiens) (Q07002 whole entry): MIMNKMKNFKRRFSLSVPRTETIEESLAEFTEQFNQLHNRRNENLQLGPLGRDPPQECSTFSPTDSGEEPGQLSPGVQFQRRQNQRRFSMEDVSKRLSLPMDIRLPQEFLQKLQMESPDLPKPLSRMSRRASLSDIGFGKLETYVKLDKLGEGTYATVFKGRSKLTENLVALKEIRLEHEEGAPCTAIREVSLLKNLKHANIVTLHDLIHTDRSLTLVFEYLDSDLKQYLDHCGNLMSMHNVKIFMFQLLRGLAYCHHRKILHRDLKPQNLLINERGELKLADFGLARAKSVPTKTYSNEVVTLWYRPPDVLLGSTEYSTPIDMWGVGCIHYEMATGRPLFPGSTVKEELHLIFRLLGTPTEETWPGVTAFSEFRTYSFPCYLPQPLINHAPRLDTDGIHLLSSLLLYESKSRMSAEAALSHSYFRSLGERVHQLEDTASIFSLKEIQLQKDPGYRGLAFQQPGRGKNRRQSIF
Sequence of Serine/threonine-protein kinase VRK2 (Homo sapiens) (Q86Y07 whole entry): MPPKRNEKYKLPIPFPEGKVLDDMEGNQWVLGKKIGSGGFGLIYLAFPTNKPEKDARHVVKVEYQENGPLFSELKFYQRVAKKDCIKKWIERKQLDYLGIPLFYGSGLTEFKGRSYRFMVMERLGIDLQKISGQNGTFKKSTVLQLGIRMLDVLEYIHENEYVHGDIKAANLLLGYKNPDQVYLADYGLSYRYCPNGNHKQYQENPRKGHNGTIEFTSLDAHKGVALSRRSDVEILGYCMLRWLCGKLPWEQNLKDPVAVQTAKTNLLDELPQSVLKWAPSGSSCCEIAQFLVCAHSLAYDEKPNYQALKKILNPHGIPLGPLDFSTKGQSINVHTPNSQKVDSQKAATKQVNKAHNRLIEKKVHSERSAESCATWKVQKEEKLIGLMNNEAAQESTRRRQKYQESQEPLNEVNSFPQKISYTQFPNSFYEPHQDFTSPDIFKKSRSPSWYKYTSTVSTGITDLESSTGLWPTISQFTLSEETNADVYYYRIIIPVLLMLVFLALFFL
Sequence of Mitogen-activated protein kinase kinase kinase 11 (Homo sapiens) (Q16584 whole entry, looked up): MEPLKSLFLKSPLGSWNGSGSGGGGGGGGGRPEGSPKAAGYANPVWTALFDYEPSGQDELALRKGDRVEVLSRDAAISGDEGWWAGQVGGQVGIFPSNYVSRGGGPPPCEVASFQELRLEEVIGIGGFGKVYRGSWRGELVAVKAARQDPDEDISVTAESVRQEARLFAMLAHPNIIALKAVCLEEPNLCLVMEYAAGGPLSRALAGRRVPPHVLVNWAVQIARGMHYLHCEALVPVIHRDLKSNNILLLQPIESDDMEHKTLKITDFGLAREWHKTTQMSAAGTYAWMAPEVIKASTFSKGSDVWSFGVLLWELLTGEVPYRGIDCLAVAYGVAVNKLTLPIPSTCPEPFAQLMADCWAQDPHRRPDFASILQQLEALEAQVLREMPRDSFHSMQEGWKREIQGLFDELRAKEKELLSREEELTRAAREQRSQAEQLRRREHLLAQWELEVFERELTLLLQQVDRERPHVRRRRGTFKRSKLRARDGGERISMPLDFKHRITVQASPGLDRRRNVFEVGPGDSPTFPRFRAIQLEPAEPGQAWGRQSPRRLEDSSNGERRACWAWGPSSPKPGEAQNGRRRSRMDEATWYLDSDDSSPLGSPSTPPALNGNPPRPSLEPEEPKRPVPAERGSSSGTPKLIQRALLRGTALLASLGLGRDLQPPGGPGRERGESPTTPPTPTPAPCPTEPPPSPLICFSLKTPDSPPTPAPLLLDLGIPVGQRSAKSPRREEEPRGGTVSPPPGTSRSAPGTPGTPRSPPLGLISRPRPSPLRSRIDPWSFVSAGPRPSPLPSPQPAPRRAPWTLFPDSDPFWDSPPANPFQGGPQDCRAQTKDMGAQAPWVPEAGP

With `CNC(=O)Nc1ccc(-c2nc(N3CC4CCC(C3)O4)c3cnn(C4CCC5(CC4)OCCO5)c3n2)cc1`, the % of control in experiment [1] is 100%; in [2], 54%.
In [3], `Cc1cc([C@@H](C)Nc2ccccc2C(=O)O)c2nc(N3CCOCC3)cc(=O)n2c1` [AZD-6482] came in with a % of control of 90%.
In experiment [4], `COc1cc(N(C)c2ccnc3ccc(C(F)(F)F)cc23)cc(OC)c1OC` had a % binding of 89%.
The compound `Nc1cnc(N2CCc3cc(S(=O)(=O)Nc4c(F)cc(Cl)cc4F)cc(N4CCCC4=O)c32)nc1` [TP-020n] returned a % of control in [5] of 83%.
As for `CN1Cc2nccc(-c3cn(C)nc3-c3ccc(F)cc3)c2C1=O`, the % of inhibition in experiment [6] is 3%.
`CC[C@@H]1[C@H](F)C(=O)N[C@@H]1COc1nccc2cc(C(N)=O)c(OC)cc12` [ZIMLOVISERTIB] showed a % of inhibition in experiment [7] of 21.8%.
Take `COc1cc(Nc2nc(C)cc(-c3cnn4nc(OC)ccc34)n2)cc(C(F)(F)F)c1`: the % of control in [8] came to 77%; in experiment [9], 86%.
Regarding `C=CC(=O)Nc1cccc(C(=O)Nc2ccc(Nc3cc(-c4[nH]c(SC)nc4C)ccn3)cc2)c1`, the % of control in experiment [10] (at 1 µM) was 94%; in experiment [10] (at 5 µM) it was 97%; in experiment [11] (at 1 µM), 97%; in experiment [11] (at 5 µM) it was 83%.
In the case of `CCC(=O)N1CCN(c2ccc(-n3c(=O)ccc4cnc5ccc(-c6cnc7ccccc7c6)cc5c43)cc2C(F)(F)F)CC1`, in experiment [12], the % of control was found to be 0.7%.
As for `C=CC(=O)Nc1cc(-n2c(=O)ccc3cnc4ccc(-c5ccc(NS(C)(=O)=O)cc5)cc4c32)ccc1C`, the % of control in experiment [13] (at 1 µM) stood at 83%; in experiment [13] (at 10 µM) it was 88%.
